Key:
human erythrocytes = assay: protection of human erythrocytes from AAPH-induced lysis; assay type: cell-based; settings: for IC50: Homo sapiens, Erythrocyte, 3 h, 100 mM AAPH, 10% RBC suspension, 37° C., 180 min, read-out: concentration of the agent that elicits 50% inhibition of cells lysis (IC50)
Description: In this example, experiments were conducted with human erythrocytes, subjecting them to free radicals generated by thermal activation of AAPH in a reaction mixture in the absence and in the presence of various amounts of purpurogallin or Trolox, to determine the cytoprotective capability of purpurogallin under these conditions.
Freshly obtained human erythrocytes were washed at least three times in saline with centrifugation at 1500 g×10 min. Then, a 20% suspension of RBC was prepared in the phosphate buffered saline (pH 7.4). (Miki et al., Arch. Biochem. Biophys. 258: 373-380, 1987).
The free radicals were generated by thermal activation of the azo-initiator2,2'-azo-bis(2-amidinopropane)HCl(AAPH). The reaction mixture (0.5 mL volumes) contained 10% red blood cell (RBC) suspension, AAPH (100 mM final level) and various levels of purpurogallin in 10 mM phosphate buffered saline. The above mixture was incubated at 37° C. for 180 min, while shaking gently. The, 35 μl aliquot of reaction mixture was taken out, diluted in 1.5 mL of saline, and centrifuged (1500 g for 10 min). The absorption of the supernatant at […] was read against a PBA blank. Similarly, the reaction mixture was treated with 1.5 mL of distilled water with sonication for 2 min to obtain complete hemolysis. Percent hemolysis was calculated according to Miki et al. (op. cit.).

rat hepatocytes [1] = assay: survival of rat hepatocytes after exposure to oxyradical (Table I); assay type: cell-based; settings: for Mean Survival Time of 10^5 Rat Hepatocytes After Exposure to Oxyradical: control about 6.5 minutes
Source text: In further studies, culturing the rat hepatocytes and testing for oxyradical damage using purpurogallin and Trolox additives according to the procedure of Wu et al. op. cit., and Clin. Chem. 36: 1172-1173 (abstract), 1990, the results given below in Table I were obtained.

[2] = system: Human ventricular myocytes; assay: survival of ventricular myocytes after exposure to oxyradical (Table II); assay type: cell-based; settings: for Mean survival time of human ventricular myocytes after exposure to oxyradical: control 2 minutes, mean of 5-7 replicates
Source text: Human ventricular myocytes were isolated and tested with purpurogallin and Trolox for protection against oxyradical damage using the methods and procedures described by Wu et al., op cit.
Each result reported in Table II is the mean of 5-7 closely agreeing replicates.

[3] = system: Rat kidney mesangial cells; assay: survival of rat kidney mesangial cells exposed to XOD and hypoxanthine (Table III); assay type: cell-based; settings: for Mean Time Survival of Cells Exposed to XOD and Hypoxanthine: XOD 66.7 IU/L, hypoxanthine 0.5 mM, control 5.7
Source text: Rat kidney mesangial cells were isolated and tested with purpurogallin versus Trolox over the same range of concentrations, for protection against oxyradical damage using methods and procedures described by Wu et al., op cit. […]

rat hepatocytes [4] = assay: time to necrose rat hepatocytes exposed to xanthine oxidase/hypoxanthine oxyradicals (FIG. 2); assay type: cell-based, rat (male Sprague-Dawley); settings: 3 mM; XOD 66.7 IU/L, 2 mM hypoxanthine; control approximately 6 min
Description: In this example, experiments were conducted with rat hepatocytes, subjecting them to the action of free radicals in the presence and absence of purpurogallin, at various levels.
Hepatocytes were prepared from male Sprague-Dawley rats (400 g-450 g) according the method of Princen et al. J. Clin. Invest. 78: 1064-1071 (1986), except that the perfusion of the liver was done first with 250 mL of 0.5 mM EGTA and 10 MM HEPES buffer solution (pH 7.4) containing 142 mM NaCl and 6.7 mM KCL via gravity drip at 20 mL/min., then with 100 mL of magnesium-free Hank's Balanced Salt Solution containing 5 mM CaCl2 and 0.05% collagenase according to Seglen, Exp. Cell. Res. 82: 391-398 (1973). All other details were as described previously (Wu et al., Biochem. Cell Biol. 68, 1189-1194, 1990).
Free radical studies were done by removing the cell medium and adding to the cells 3 mL of 0.05M sodium phosphate-buffered saline (PBS) (pH 7.4) containing 66.7 IU/L of xanthine oxidase (XOD) and 2 mM hypoxanthine, the latter two being used to generate oxyradicals. The base for comparing the effect of different levels of purpurogallin was the time taken to cause necrosis in 95% of 10^5 cells of the same generation in each culture dish. […]
The results are shown graphically in FIG. 2. […] The data are expressed as means±SD (standard deviation). […]

rat livers = assay: partial hepatic ischemia-reperfusion in vivo; set-up: species or system Sprague-Dawley rats; settings: for Mean Necrosis (% by weight): infused via penile vein, 24 h reperfusion, saline control 30.3, n=6
Description: In vivo studies were conducted on rat livers, to determine the effectiveness of purpurogallin as a cytoprotectant in partial hepatic ischemia-reperfusion.
There was used the same model as described in Wu et al. Hepatology 13: 575-580, (1991). In essence, the model involves the occlusion of blood vessels supplying to the left lateral, median, and Spigelian lobes of the rate liver by clamping the left portal vein, left hepatic artery and left bile duct. The right portal vein, hepatic artery and bile duct were left intact as an interal shunt. The occlusion was done in Sprague-Dawley rats (0.3-0.4 kg) which had fasted overnight. Approximately […] before the end of ischemia, either 3 mL of saline (control) or saline containing purpurogallin or Trolox (at the levels specified below) was infused into the animals via the penile vein over a 3 minute period. This was followed by reperfusion for 24 hours. Then, the extent of necrosis (based on wet weight of the liver) was quantified by a well established histochemical method (Frederiks et al., Exptl. Mol. Path 41: 119-125, 1984).

water solubility = assay type: physicochemical; settings: 4 mM prepared in PBS with brief sonication, pH adjusted to 7.40±0.05
heart = heart ischemia-reperfusion in vivo; set-up: species or system New Zealand white rabbits
Description: In this example, the cytoprotective effect of purpurogallin in vivo, in heart ischemia-reperfusion in rabbits was examined.
New Zealand white rabbits (3.0-3.5 kg by weight) were anaesthetized with intramuscular injection of Ketamine (35 mg/kg) and Atravet (0.4 mg/kg), and intravenous injection of atropine (0.1 mg/kg).
After shaving the frontal area of the animal, anaesthesia was maintained by performing tracheotomy and ventilating the animal with positive pressure respiration using a Harvard small animal respirator and a gas mixture of 2.5% ethrane (or enflurane) in oxygen. A midline sternotomy was done. The pericardium was opened and the heart was exposed. The main branch of the anterior ventricular coronary artery that supplies blood to a great part of the left ventricle and apex in rabbits (also referred to as the left circumflex coronary artery) was temporarily ligated with a 5-0 silk thread for 1 hour at the site between 1/2 to 2/3 from apex to the atrioventricular groove. Approximately 1 minute before releasing the occlusion, a 30-ml bolus of 1 mM test solution was injected through the right external jugular vein. In control animals, a 30-mL bolus of normal saline was given instead of the test solution. […] After this period, the heart was harvested, stained for enzyme activity with a tetrazolium dye and the areas of necrosis determined by planimetry. […]

SMILES | IC50 (human erythrocytes) [µM] | Mean Survival Time of 10^5 Rat Hepatocytes After Exposure to Oxyradical (rat hepatocytes [1]; 0.5 mM) [min] | Mean Survival Time of 10^5 Rat Hepatocytes After Exposure to Oxyradical (rat hepatocytes [1]; 1.0 mM) [min] | Mean Survival Time of 10^5 Rat Hepatocytes After Exposure to Oxyradical (rat hepatocytes [1]; 2.0 mM) [min] | Mean survival time of human ventricular myocytes after exposure to oxyradical ([2]; 0.5 mM) [min] | Mean survival time of human ventricular myocytes after exposure to oxyradical ([2]; 1.0 mM) [min] | Mean survival time of human ventricular myocytes after exposure to oxyradical ([2]; 1.5 mM) [min] | Mean survival time of human ventricular myocytes after exposure to oxyradical ([2]; 3.0 mM) [min] | Mean Time Survival of Cells Exposed to XOD and Hypoxanthine ([3]; 0.13 mM) [min] | Mean Time Survival of Cells Exposed to XOD and Hypoxanthine ([3]; 0.25 mM) [min] | Mean Time Survival of Cells Exposed to XOD and Hypoxanthine ([3]; 0.50 mM) [min] | Mean Time Survival of Cells Exposed to XOD and Hypoxanthine ([3]; 1.00 mM) [min] | further results
Cc1c(C)c2c(c(C)c1O)CCC(C)(C(=O)O)O2 (centres unmarked) [Trolox, 6-hydroxy-2,5,7,8-tetramethylchroman-2-carboxylic acid, reference compound] | ~740 | 12 | 13 | 16 | 3.5 | 4.5 | 4.8 | 5.3 | 6.4 | 6.6 | 7.4 | 7.8 | 
O=c1c(O)cccc2cc(O)c(O)c(O)c12 [Purpurogallin, 2,3,4,6-tetrahydroxy-5H-benzocyclohepten5-one] | 120 | 18 | 20 | 31 | 14 | > 60 | > 60 | > 60 | 11.5 | 13.4 | 16.0 | 19.4 | time taken to necrose 100,000 hepatocytes (rat hepatocytes [4]): up to 30 min; effectiveness versus Trolox in protecting cells from lysis (from IC50) (human erythrocytes; versus Trolox): six; Mean Necrosis (% by weight) (rat livers; 4.4 μmoles/kg body weight, SD 4.6): 17.7 % by weight; % Salvage of Liver (rat livers; 4.4 μmoles/kg body weight, p value vs control <0.05): 42%; Mean Necrosis (% by weight) (rat livers; 8.8 μmoles/kg body weight, SD 4.9): 7.3 % by weight; % Salvage of Liver (rat livers; 8.8 μmoles/kg body weight, p value vs control 0.005): 76%; Mean Necrosis (% by weight) (rat livers; 18 μmoles/kg body weight, SD 1.1): 4.4 % by weight; % Salvage of Liver (rat livers; 18 μmoles/kg body weight, p value vs control 0.001): 86%; water solubility (water solubility): partly water-soluble; protection of rat hepatocytes compared with Trolox (rat hepatocytes [1]; at equivalent concentrations): clearly more protective of rat hepatocytes than Trolox; protection of myocytes compared with Trolox ([2]; especially at levels greater than 0.5 mM): at least an order of magnitude more protective of myocytes than Trolox; protection of kidney cells compared with Trolox ([3]; over all the levels examined): protects the kidney cells substantially better than Trolox; Mean % (± SD) organ necrosis in area at risk (heart; 8.6-10 μmoles/kg body weight (30-ml bolus of 1 mM), right external jugular vein, 3-hour reperfusion, saline control 46.6 ± 10, p <0.001): 11.8 ± 6.2%; Mean & organ salvage (heart; 8.6-10 μmoles/kg body weight, p <0.001 vs control): 75%

— patent US5248668A, “Use of purpurogallin and glycosides thereof in treating ischemia in mammals” (Wintek Consulting Ltd., priority 1992, dated 1993)
